Where “and” joins values, the source holds several entries; their conditions need not be identical. Identical values can stand only once. Some results are limits rather than exact numbers.

One series addresses T1, PKA-phosphorylated RyR2 (Homo sapiens, UniProt Q92736).
T1 construct: from tissue
The series is described as follows: FKBP12.6 rebinding assay: FKBP12.6 binding to PKA-phosphorylated RyR2 in cardiac SR. The note with it: compound 0.5-1000 nM; Michaelis-Menten curve fitting. Here is the method: Samples are centrifuged at 95,000 g for 10 min and the pellets are washed three times in 0.2 ml imidazole buffer. The final pellets are pooled and resuspended in imidazole buffer (final concentration≈10 μg/μl). […] Samples then are centrifuged at 100,000 g for 10 minutes and pellets washed 3 times with imidizol buffer. […] Immunoblots are developed using an anti-FKBP antibody (1:3,000 dilution). […] The intracellular solution contains (in mM): CsCl, 60; CaCl2, 1; EGTA, 11; MgCl2, 1; K2ATP, 5; HEPES, 10; aspartic acid, 50; pH 7.4 (CsOH). Under these conditions, it is expected that the measured current was carried by Ba^2+ primarily through L-type calcium channels which is referred to as ICa,L. Drugs are applied by a local solution changer and reach the cell membrane within 1 s.
The FKBP12.6 rebinding assay described above is used to determine the amount of FKBP12.6 binding to PKA-phosphorylated RyR2 at various concentrations (0.5-1000 nM) of the compounds shown. EC50 values are calculated using Michaelis-Menten curve fitting.
The EC50 values are calculated using Michaelis-Menten curve fitting.

The target in a further series is hERG current (Homo sapiens, UniProt Q12809). Kind of series: hERG current, PatchXpress 7000A automatic parallel patch clamp in hERG-transfected HEK 293 cells (Example 6). As to conditions: for Individual Data (% Inhibition): single cell; for hERG current inhibition at the highest concentration tested: highest concentration tested (10 μM). On the procedure: (§1) HEK293 cells were transfected with a plasmid containing the hERG cDNA and a neomycin resistance gene. Stable transfectants were selected by culturing the cells in the presence of G418. The selection pressure was maintained by continued culture in the presence of G418. […] Cells for use in electrophysiology were cultured in 35 mm dishes.
(§2) Onset and steady state block of hERG current was measured using a pulse pattern with fixed amplitudes (conditioning prepulse: +20 mV for 2 seconds; test pulse: −50 mV for 2 seconds) repeated at 10 second intervals, from a holding potential of −80 mV. Peak tail current was measured during the 2 second step to −50 mV. A steady state was maintained for at least 30 seconds before applying the test compound or the positive control. Peak tail current was monitored until a new steady state was achieved. Test compound concentrations were applied cumulatively in ascending order without washout between applications.
(§3) Data acquisition and analysis was performed using the suite of pCLAMP (Vre. 8.2) programs (Axon Instruments, Union City, Calif.). Steady state was defined by the limiting constant rate of change with time (linear time dependence). The steady state before and after application of the test or control compounds was used to calculate the percentage of current inhibited at each concentration. […] Nonlinear squares fits were solved with the Solver add-in for Excel 2000 (Microsoft, Redmond, Wash.).
(§4) Multiple compounds of the invention were tested for their effects on hERG currents. The compounds tested were: ARM036-Na, ARM047, ARM048, ARM050, ARM057, ARM064, ARM074, ARM075, ARM076, ARM077, ARM101, ARM102, ARM103, ARM104, ARM106, ARM107 and ARM26. […] Electrophysiological recordings were made using the PatchXpress 7000 A (Molecular Devices) automatic parallel patch clamp system. […] The duration of exposure to each test concentration was 5 minutes.
A general note: Block of hERG is tested as a sign of cardiac risk.

In a further series the target is hERG (Homo sapiens, UniProt Q12809). Described as above. The note with it: human, HEK 293 cells stably transfected with hERG cDNA. Here is the method: as §1, §2, §3, §4
[1] abbreviates: Individual Data (% Inhibition), single cell.

Chain of hERG (Q12809 whole entry): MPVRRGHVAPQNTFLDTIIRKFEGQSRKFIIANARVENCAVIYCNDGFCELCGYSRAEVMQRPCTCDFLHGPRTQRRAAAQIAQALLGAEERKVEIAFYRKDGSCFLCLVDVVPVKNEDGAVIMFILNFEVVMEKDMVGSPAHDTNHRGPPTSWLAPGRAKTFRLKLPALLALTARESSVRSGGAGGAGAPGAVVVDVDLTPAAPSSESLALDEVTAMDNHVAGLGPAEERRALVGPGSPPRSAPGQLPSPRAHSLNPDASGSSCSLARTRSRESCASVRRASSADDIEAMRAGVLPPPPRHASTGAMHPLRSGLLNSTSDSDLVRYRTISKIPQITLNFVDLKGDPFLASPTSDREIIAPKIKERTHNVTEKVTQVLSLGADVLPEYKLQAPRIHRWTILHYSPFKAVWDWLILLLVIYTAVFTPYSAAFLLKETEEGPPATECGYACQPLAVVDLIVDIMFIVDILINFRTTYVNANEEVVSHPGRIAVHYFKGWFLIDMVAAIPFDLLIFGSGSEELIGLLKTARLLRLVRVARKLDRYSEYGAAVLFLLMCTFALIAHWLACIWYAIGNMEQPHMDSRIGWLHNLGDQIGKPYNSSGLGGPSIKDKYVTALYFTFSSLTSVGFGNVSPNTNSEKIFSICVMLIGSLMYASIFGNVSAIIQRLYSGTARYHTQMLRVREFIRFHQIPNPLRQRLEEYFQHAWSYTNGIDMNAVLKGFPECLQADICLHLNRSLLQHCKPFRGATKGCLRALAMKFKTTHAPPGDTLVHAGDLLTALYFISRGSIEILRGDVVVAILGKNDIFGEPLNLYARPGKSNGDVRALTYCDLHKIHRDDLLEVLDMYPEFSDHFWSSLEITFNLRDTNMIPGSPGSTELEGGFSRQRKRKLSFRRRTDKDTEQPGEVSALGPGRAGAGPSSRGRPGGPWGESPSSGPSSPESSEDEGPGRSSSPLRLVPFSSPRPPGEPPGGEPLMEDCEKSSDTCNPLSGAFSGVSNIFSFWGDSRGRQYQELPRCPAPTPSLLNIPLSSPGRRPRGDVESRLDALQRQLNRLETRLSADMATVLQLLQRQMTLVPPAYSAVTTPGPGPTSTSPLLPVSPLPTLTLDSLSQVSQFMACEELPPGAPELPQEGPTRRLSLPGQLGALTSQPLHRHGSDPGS
Chain of hERG current (Q12809 whole entry): as above

In general, EC50 refers to the concentration giving half of the maximal effect. A high value points to a need for much substance. Turning to `COc1ccc2c(c1)CN(C(=O)CCN1CCCCC1c1nnc(Cc3ccccc3)o1)CCS2` (centres unmarked) [S55], on PKA-phosphorylated RyR2, it took 111 nM to reach a half-maximal effect (EC50).
`O=C(O)C(=O)N1CCSc2ccccc2C1` [S77]: the “Mean % hERG Inhibition” value on hERG current (0.01 μM) is given as 1.3%; at hERG current (0.1 μM) it was 7.5%; at hERG current (1 μM), 3.6%; at hERG current (10 μM), 4.1%. Besides, the “Individual Data (% Inhibition)” value is 1.4% and 1.1% on hERG current (0.01 μM, listed as ARM077, 0.01 µM); 11.4% and 3.6% on hERG current (0.1 μM, listed as ARM077, 0.1 µM); 3.1% and 4.0% on hERG current (1 μM, listed as ARM077, 1 µM); 0.9% and 7.2% on hERG current (10 μM, listed as ARM077, 10 µM). Also, the “hERG current inhibition at the highest concentration tested” value (from here on “hERG current inhibition”) at hERG current is listed as “less than 50%”. Also, the EC50 on PKA-phosphorylated RyR2 is 60 nM.
Take `COc1ccc2c(c1)CN(C(=O)N1CCC(Cc3ccccc3)CC1)CCS2` [S6]: a half-maximal effect on PKA-phosphorylated RyR2 (EC50) was put at 252 nM.
As to `COc1ccc2c(c1)CN(C(=O)Nc1ccccc1)CCS2` [S11], the EC50 at PKA-phosphorylated RyR2 is 181 nM.
As for `COc1ccc2c(c1)CN(C(=O)c1ccc(N=[N+]=[N-])cc1O)CCS2` [S40], the EC50 on PKA-phosphorylated RyR2 turned out to be 100 nM.
Consider `COc1ccc2c(c1)CN(C(=O)C(=O)[O-])CCS2.[Na+]` [ARM036-Na], for which the “Mean % hERG Inhibition” value is recorded as 0.2% on hERG current (0.01 μM), 5.0% at hERG current (0.1 μM), 5.5% at hERG current (1 μM) and 6.7% at hERG current (10 μM). The “Individual Data (% Inhibition)” value at hERG current (0.01 μM) was 0.0% and 0.3%; on hERG current (0.1 μM), 10.0% and 0.0%; on hERG current (1 μM) it was 2.4% and 8.6%; on hERG current (10 μM) it was 5.1% and 8.2%. Also, the “hERG current inhibition” value at hERG current is on record as “less than 50%”.
The molecule `COc1ccc2c(c1)CN(C(=O)c1ccccc1)CCS2` [S9] displayed an EC50 at PKA-phosphorylated RyR2 of 205 nM.
In turn, `COc1ccc2c(c1)CN(C(=O)N1CCN(c3ccccc3)CC1)CCS2` [S53] showed a half-maximal effective concentration (EC50) on PKA-phosphorylated RyR2 of 200 nM.
By inhibition is commonly meant the change of the read-out against control, counted positive when it falls. For the molecule `O=C(N1CCNCC1)N1CCSc2ccccc2C1` [S103], the “Individual Data (% Inhibition)” value on hERG current (0.01 μM, listed as ARM103, 0.01 µM) is 12.1% and 1.5%; on hERG current (0.1 μM, listed as ARM103, 0.1 µM), 2.4%; on hERG current (1 μM, listed as ARM103, 1 µM), 9.6%; at hERG current (10 μM, listed as ARM103, 10 µM), 29.9%. Also, the inhibition at 5 min, 0.1 µM was 4.2% against hERG (setting [1]) and 3.3% at hERG (Mean % hERG Inhibition). Moreover, the inhibition at 5 min, 1 µM at hERG (setting [1]) is 5%; against hERG (Mean % hERG Inhibition), 7.3%. Also, the inhibition at 5 min, 10 µM is 28.4% against hERG (Individual Data (% Inhibition), 10 μM, single cell); 29.2% against hERG (Mean % hERG Inhibition, 10 μM); under 50% at hERG (hERG current inhibition at the highest concentration tested, highest concentration tested (10 μM)). In addition, at hERG (Mean % hERG Inhibition, 0.01 μM), the inhibition at 5 min, 0.01 µM is 6.8%.
In the case of `COc1ccc2c(c1)CN(C(=O)C(=O)O)CCS2(=O)=O` [S104], the “Mean % hERG Inhibition” value on hERG current (0.01 μM) amounted to 1.6%; on hERG current (0.1 μM), 2.5%; at hERG current (1 μM) it was 4.6%; on hERG current (10 μM), 7.4%. In addition, the “Individual Data (% Inhibition)” value at hERG current (0.01 μM, listed as ARM104, 0.01 µM) is 1.2% and 1.9%; on hERG current (0.1 μM, listed as ARM104, 0.1 µM), 1.1% and 3.9%; at hERG current (1 μM, listed as ARM104, 1 µM), 3.1% and 6.0%; on hERG current (10 μM, listed as ARM104, 10 µM), 8.3% and 6.5%. Moreover, the “hERG current inhibition” value at hERG current is reported as “less than 50%”. Moreover, the response on PKA-phosphorylated RyR2 was half-maximal at 111 nM (EC50).
For `COc1ccc2c(c1)CN(S(=O)(=O)c1ccc(C)cc1)CCS2` [S5], on PKA-phosphorylated RyR2, a half-maximal effect (EC50) was put at 208 nM.
In turn, `COc1ccc2c(c1)CN(C(=O)CCN1CCCC[C@H]1c1nnc(Cc3ccccc3)o1)CCS2` [S56] yielded an EC50 at PKA-phosphorylated RyR2 of 95 nM.
`COc1ccc2c(c1)CN(C(=O)NCCc1cnc[nH]1)CCS2` [S67] registered an EC50 at PKA-phosphorylated RyR2 of 89 nM.
Take `COc1ccc2c(c1)CN(C(=O)CC(=O)O)CCS2` [S38]: on PKA-phosphorylated RyR2, the midpoint of the response, the EC50, lay at 44 nM.
Turning to `COc1ccc2c(c1)CN(C(=O)NCc1ccccc1)CCS2` [S49], at PKA-phosphorylated RyR2, the EC50 is 81 nM.
`COc1ccc2c(c1)CN(C(=O)C(=O)NCCSSCCNC(=O)C(=O)N1CCSc3ccc(OC)cc3C1)CCS2` [S44]: the midpoint of the response on PKA-phosphorylated RyR2, the EC50, lay at 121 nM.
In turn, `COc1ccc2c(c1)CN(S(=O)(=O)Nc1cccnc1)CCS2` [S54] showed an EC50 on PKA-phosphorylated RyR2 of 77 nM.
As to `COc1ccc2c(c1)CN(C(N)=O)CCS2` [S46], it took 150 nM to reach a half-maximal effect at PKA-phosphorylated RyR2 (EC50).
At PKA-phosphorylated RyR2, `COc1ccc2c(c1)CN(C(=O)NO)CCS2` [S51] had an EC50 of 175 nM.
The same measure, in the same setting: for `COc1ccc2c(c1)CN(C(=O)CCN1CCC(Cc3ccccc3)CC1)CCS2(=O)=O` [S23] the value was 268 nM; for `COc1ccc2c(c1)CN(C(=O)NCCc1ccc(O)c(O)c1)CCS2` [S66], 110 nM.
Same read-out and setting: for `COc1ccc2c(c1)CN(C(=O)CCN1CCC(Cc3ccc(N)cc3)CC1)CCS2` [S60] the value was 68 nM; for `C=CC(=O)N1CCSc2ccc(OC)cc2C1` [S27], about 50 nM; for `COc1ccc2c(c1)CN(C(=O)CCC(=O)N1CCSc3ccc(OC)cc3C1)CCS2` [S19], 265 nM.
Still for that read-out and setting: with `COc1ccc2c(c1)CN(C(=O)c1cccc(C(=O)N3CCSc4ccc(OC)cc4C3)n1)CCS2` [S22] the figure was 355 nM; with `COc1ccc2c(c1)CN(S(C)(=O)=O)CCS2` [S4], 102 nM.
`COc1ccc2c(c1)CN(C(=O)CI)CCS2` [S7] showed an EC50 on PKA-phosphorylated RyR2 of 55 nM.
On PKA-phosphorylated RyR2, `COc1ccc2c(c1)CN(C(=O)CCN1CCC(Cc3ccc(N)cc3N)CC1)CCS2` [S61] had an EC50 of 95 nM.
Still for that read-out and setting: for `CCN(CC)C(=O)C(=O)N1CCSc2ccc(OC)cc2C1` [S59] the value was 102 nM; for `CCCCN(CCCC)CCS(=O)(=O)N1CCSc2ccc(OC)cc2C1` [S2], 211 nM.
For `COc1ccc2c(c1)C(=O)NCCS2` [S25], a half-maximal effect on PKA-phosphorylated RyR2 (EC50) was put at 40 nM.
In turn, `COc1ccc2c(c1)CN(C(=O)CCN1CCCCC1)CCS2` [S58] gave an EC50 on PKA-phosphorylated RyR2 of 55 nM.
`COc1ccc2c(c1)CN(C(=O)C(=O)NCCSSCCNC(=O)c1ccc(N=[N+]=[N-])cc1[N+](=O)[O-])CCS2` [S43]: the EC50 on PKA-phosphorylated RyR2 was 80 nM.
The molecule `c1ccc2c(c1)CNCCS2` [S68] returned a 50% effective concentration (EC50) at PKA-phosphorylated RyR2 of about 100 nM.
Same read-out and setting: for `COc1ccc2c(c1)CN(C(=O)CCN1CCC(Cc3ccc(N=[N+]=[N-])cc3)CC1)CCS2` [S62] the value was 45 nM; for `COc1ccc2c(c1)CN(C(=O)CCN1CCC(Cc3ccc(N=[N+]=[N-])cc3N=[N+]=[N-])CC1)CCS2` [S63], 52 nM; for `COc1ccc2c(c1)CN(C(=O)NCc1ccc3c(c1)CCO3)CCS2` [S52], 143 nM.
With `COc1ccc2c(c1)CN(C(=O)C(=O)NCCSSCCNC(=O)c1ccc(N=[N+]=[N-])cc1O)CCS2` [S45], the response at PKA-phosphorylated RyR2 was half-maximal at 80 nM (EC50).
On to `COc1ccc2c(c1)CN(C(=S)Nc1ccccc1)CCS2` [S12], for which the midpoint of the response at PKA-phosphorylated RyR2, the EC50, lay at 197 nM.
In turn, `COc1ccc2c(c1)CN(S(=O)(=O)CCN1CCC(Cc3ccccc3)CC1)CCS2` [S1] registered an EC50 at PKA-phosphorylated RyR2 of 150 nM.

(Values after patent US8710045B2, “Agents for preventing and treating disorders involving modulation of the ryanodine receptors” (The Trustees of Columbia University in the City of New York, priority 2004, dated 2014).)
